Assay results taken from patent US20060223775A1 (priority 1992, published 2006).

How the values were obtained:
Assay type in all cases: cell-based
[1] = system: normal (NHF) human fibroblast; assay: Cell killing mediated by MVM-TK virions and gancyclovir (WST-1 colorimetric assay); settings: mock or MVM-TK infected, WST-1, daily
Protocol: (§1) The efficiency and selectivity of cells killing mediated by the MVM/P387-TK virions and gancyclovir were assessed by infecting normal (NHF) and transformed (NBK) human fibroblast. The results of said experiments are described in the enclosed FIGS. 8 and 9.
(§2) Cell growth was daily monitored with the WST-1 colorimetric assay (Boehringer).
(§3) In FIG. 9, NHF and NBK cells were infected at different MoI and the cell survival was assessed after 4 days with the WST-1 assay in presence or absence of GCV.

[2] = system: transformed (NBK) human fibroblast; assay: as above; settings: WST-1, daily
Protocol: as §1, §2, §3

[3] = system: luciferase gene under the control of a promoter activated by tTA; assay: Luciferase expression in clone NBK.MZ.tTA-2 electroporated with pUHC13-1
Protocol: Selected stably transfected NBK324 clones (G418 selection) were assayed for luciferase expression upon transient transfection (in absence or presence of tetracycline) with the plasmid pUHC13-1 (Gossen and Bujard). The plasmid pUHC13-1 is an expression vector containing the luciferase gene under the control of a promoter activated by tTA.
The best clone selected, NBK.MZ.tTA-2, upon electroporation at 230 volts and 1050 μF with 4 μg of pUHC13-1 is charaterized by the following results (expressed in relative luciferase unit rlu/μg protein): […]

Row | Compound | cell growth at different GCV concentrations [1] | GCV concentration at which growth was severely suppressed ([2]; MVM-TK infected NBK) [µg/mL] | cell growth at different GCV concentrations ([2]; mock infected NBK) | luciferase expression (relative luciferase unit) ([3]; tetracycline 10 ng ml, 4 μg pUHC13-1, 230 volts, 1050 μF) [rlu/μg protein] | luciferase expression (relative luciferase unit) ([3]; tetracycline 100 ng/ml, 4 μg pUHC13-1) [rlu/μg protein] | luciferase expression (relative luciferase unit) ([3]; tetracycline 1 μg/ml, 4 μg pUHC13-1) [rlu/μg protein]
1 | Nc1nc(O)c2ncn(COC(CO)CO)c2n1 [GCV, gancyclovir] | not affected | ≥ 3 | not affected | – | – | –
2 | CN(C)[C@@H]1C(O)=C(C(N)=O)C(=O)[C@@]2(O)C(O)=C3C(=O)c4c(O)cccc4[C@@](C)(O)[C@H]3C[C@@H]12 [tetracycline] | – | – | – | 19212 | 2268 | 1568
